Experiments:
[1] = test system: Silverleaf Whitefly (Bemisia argentifolii); assay: whole plant or invertebrate; assay type: in vivo; conditions: in Gossypium hirsutum, 72 h, 3 days after treatment, in comparison with untreated controls
Method: II.4 Silverleaf Whitefly (Bemisia argentifolii), Adult
The active compounds were formulated in 50:50 acetone:water and 100 ppm Kinetic® surfactant.
Selected cotton plants were grown to the cotyledon state (one plant per pot). The cotyledons were dipped into the test solution to provide complete coverage of the foliage and placed in a well-vented area to dry. Each pot with treated seedling was placed in a plastic cup and 10 to 12 whitefly adults (approximately 3-5 day old) were introduced. The insects were collected using an aspirator and an 0.6 cm, non-toxic Tygon® tubing (R-3603) connected to a barrier pipette tip. The tip, containing the collected insects, was then gently inserted into the soil containing the treated plant, allowing insects to crawl out of the tip to reach the foliage for feeding. The cups were covered with a reusable screened lid (150 micron mesh polyester screen PeCap from Tetko Inc). Test plants were maintained in the holding room at about 25° C. and 20-40% relative humidity for 3 days avoiding direct exposure to the fluorescent light (24 hour photoperiod) to prevent trapping of heat inside the cup. Mortality was assessed 3 days after treatment of the plants.

[2] = test system: Mediterranean fruitfly (Ceratitis capitata); conditions: eggs treated with 2500 ppm; 6 days
Method: II.9 Activity against Mediterranean fruitfly (Ceratitis capitata)
50 to 80 eggs were placed into microtiterplates filled with 0.5% agar-agar and 14% diet in water. The eggs were sprayed with 5 μl of the test solution, the plates were sealed with pierced foils and kept at 27-29° C. and 75-85% humidity under fluorescent light for 6 days. Mortality was assessed on the basis of the agility of the hatched larvae. Tests were replicated 2 times.

[3] = test system: Cotton Aphid (Aphis gossypii); assay: whole plant or invertebrate; assay type: in vivo; conditions: 120 h
Description: • 2. Biological Examples II.1 Cotton Aphid (Aphis gossypii), Mixed Life Stages
The active compounds were formulated in 50:50 acetone: water and 100 ppm Kinetic® surfactant.
Cotton plants at the cotyledon stage (one plant per pot) were infested by placing a heavily infested leaf from the main colony on top of each cotyledon. The aphids were allowed to transfer to the host plant overnight, and the leaf used to transfer the aphids was removed. The cotyledons were dipped in the test solution and allowed to dry. After 5 days, mortality counts were made.

[4] = test system: Brown Planthopper (Nilaparvata lugens); assay: whole plant or invertebrate; assay type: in vivo; conditions: in Oryza sativa, assessed 24, 48 and 72 hours after treatment, in comparison with untreated controls
Method: II.5 Brown Planthopper (Nilaparvata lugens)
The active compounds were formulated as a 20:80 acetone:water solution. Surfactant (Alkamuls EL 620) was added at the rate of 0.1% (vol/vol).
Potted rice plants of 3-4 weeks of age are sprayed with 10 ml of the test solution using air driven hand atomizer (Devillbis atomizer) at 1.7 bar. The treated plants are allowed to dry for about 1 hour and covered with Mylar cages. The plants are inoculated with 10 adults of the specie (5 male and 5 females) and kept at 25-27° C. and 50-60% humidity for 3 days. Mortality is assed after 24, 48 and 72 hours after treatment. Dead insects are usually found in the water surface. Each treatment is replicated once.

## COc1ccc2c(c1)CC(NC(=S)NCCOC(=O)c1ccccc1)CC2 (centres unmarked) [compound 16, Benzoic acid 2-[3-(7-methoxy-1,2,3,4-tetrahydro-naphthalen-2-yl)-thioureido]-ethyl ester]
[1]
  mortality at 300 ppm: ≥ 50%

## COc1ccc2c(c1)CC(NC(=S)NCCO)CC2 (centres unmarked) [compound 18]
[2]
  mortality: at least 50%

## Clc1cccc2c1CC(NC1=NCCS1)CC2 (centres unmarked) [compound 2a, (8-Chloro-1,2,3,4-tetrahydro-naphthalen-2-yl)-(4,5-dihydro-thiazol-2-yl)-amine]
[3]
  mortality at 300 ppm: ≥ 50%

## COc1ccc2c(c1)CC(NC(=S)NCCOC(C)=O)CC2 (centres unmarked) [compound 17, Acetic acid 2-[3-(7-methoxy-1,2,3,4-tetrahydro-naphthalen-2-yl)-thioureido]-ethyl ester]
[4]
  mortality at 300 ppm: ≥ 50%
[1]
  mortality at 300 ppm: ≥ 50%

Reference: patent US20100298138A1, “Aminoazoline and Urea Derivatives for Combating Animal Pests” (BASF SE, priority 2007, published 2010)
